According to patent US20250296953A1, “3,4-THIAZOLO-STEROIDS AND METHODS OF MAKING AND USING THE SAME” (Arkansas State University - Jonesboro, priority 2018, published 2025):

Columns and labels:
[1] = system: 60 different human tumor cell lines; experiment: NCI Development Therapeutics Program 60 cell line screen, one dose; assay type: cell-based
HCT-15 (Colon Cancer) = experiment: NCI 60 one dose screen; assay type: cell-based, human
SF-295 = experiment: NCI 60 one dose screen; assay type: cell-based, human; conditions: one dose; CNS Cancer; SF-295
SF-539 = experiment: NCI 60 one dose screen; assay type: cell-based, human; conditions: one dose; CNS Cancer; SF-539

C[C@]12CC[C@H]3[C@@H](CC=C4c5sc(-c6ccc(O)cc6)nc5CC[C@@]43C)[C@@H]1CC[C@@H]2O [III.5, (1S,2R,13R,14S,17S,18S)-7-(4-hydroxyphenyl)-2,18-dimethyl-8-thia-6-azapentacyclo[11.7.0.02,10.05,9.014,18]icosa-5(9),6,10-trien-17-ol]
Growth Percent ([1]; Breast Cancer, BT-549): 59.26% | Growth Percent ([1]; Breast Cancer, HS 578T): 4.16% | Growth Percent ([1]; Breast Cancer, MCF7): 42.59% | Growth Percent ([1]; Breast Cancer, MDA-MB-231/ATCC): 56.24% | Growth Percent ([1]; Breast Cancer, MDA-MB-468): 81.03% | Growth Percent ([1]; Breast Cancer, T-47D): 67.74% | Growth Percent ([1]; CNS Cancer, SF-268): 48.55% | Growth Percent ([1]; CNS Cancer, SNB-19): 71.05% | Growth Percent ([1]; CNS Cancer, SNB-75): 26.42% | Growth Percent ([1]; CNS Cancer, U251): 20.08% | Growth Percent ([1]; Colon Cancer, COLO 205): 77.66% | Growth Percent ([1]; Colon Cancer, HCC-2998): 95.33% | Growth Percent ([1]; Colon Cancer, HCT-116): 43.80% | Growth Percent ([1]; Colon Cancer, HT29): 19.90% | Growth Percent ([1]; Colon Cancer, KM12): 60.79% | Growth Percent ([1]; Colon Cancer, SW-620): 71.71% | Growth Percent ([1]; Leukemia, CCRF-CEM): 13.10% | Growth Percent ([1]; Leukemia, HL-60(TB)): 22.65% | Growth Percent ([1]; Leukemia, K-562): 13.87% | Growth Percent ([1]; Leukemia, MOLT-4): −23.23% | Growth Percent ([1]; Leukemia, RPMI-8226): −36.92% | Growth Percent ([1]; Leukemia, SR): 5.95% | Growth Percent ([1]; Melanoma, LOX IMVI): 25.37% | Growth Percent ([1]; Melanoma, M14): 60.54% | Growth Percent ([1]; Melanoma, MALME-3M): 72.42% | Growth Percent ([1]; Melanoma, MDA-MB-435): 91.96% | Growth Percent ([1]; Melanoma, SK-MEL-2): 44.94% | Growth Percent ([1]; Melanoma, SK-MEL-5): 71.98% | Growth Percent ([1]; Melanoma, SK-MEL-28): 53.31% | Growth Percent ([1]; Melanoma, UACC-62): 28.69% | Growth Percent ([1]; Melanoma, UACC-257): 66.19% | Growth Percent ([1]; Non-small Cell Lung Cancer, A549/ATCC): 52.15% | Growth Percent ([1]; Non-small Cell Lung Cancer, EKVX): 63.56% | Growth Percent ([1]; Non-small Cell Lung Cancer, HOP-62): 46.75% | Growth Percent ([1]; Non-small Cell Lung Cancer, NCI-H23): 74.72% | Growth Percent ([1]; Non-small Cell Lung Cancer, NCI-H226): 109.87% | Growth Percent ([1]; Non-small Cell Lung Cancer, NCI-H322M): 92.82% | Growth Percent ([1]; Non-small Cell Lung Cancer, NCI-H460): 41.91% | Growth Percent ([1]; Ovarian Cancer, IGROV1): 80.66% | Growth Percent ([1]; Ovarian Cancer, NCI/ADR-RES): 76.79% | Growth Percent ([1]; Ovarian Cancer, OVCAR-3): 38.63% | Growth Percent ([1]; Ovarian Cancer, OVCAR-4): 81.75% | Growth Percent ([1]; Ovarian Cancer, OVCAR-5): 106.38% | Growth Percent ([1]; Ovarian Cancer, OVCAR-8): 74.18% | Growth Percent ([1]; Ovarian Cancer, SK-OV-3): 38.63% | Growth Percent ([1]; Prostate Cancer, DU-145): 63.77% | Growth Percent ([1]; Prostate Cancer, PC-3): 49.49% | Growth Percent ([1]; Renal Cancer, 786-0): 8.35% | Growth Percent ([1]; Renal Cancer, A498): 49.45% | Growth Percent ([1]; Renal Cancer, ACHN): 46.04% | Growth Percent ([1]; Renal Cancer, CAKI-1): 61.32% | Growth Percent ([1]; Renal Cancer, RXF 393): −46.32% | Growth Percent ([1]; Renal Cancer, SN12C): 96.68% | Growth Percent ([1]; Renal Cancer, TK-10): 89.27% | Growth Percent ([1]; Renal Cancer, UO-31): 9.33% | Growth Percent (HCT-15 (Colon Cancer)): 29.48% | Growth Percent (SF-295): −36.24% | Growth Percent (SF-539): 8.02%
